{
  "source": "patent US9167820B2",
  "about": "“Anti-biofilm compounds” (priority 2011, dated 2015)",
  "key": {"[1]": {"system": "P. gingivalis adherence to streptococci (S. gordonii DL-1)", "assay": "Inhibition of P. gingivalis adherence to streptococci, two species biofilm culture model (confocal microscopy)", "format": "cell-based", "conditions": "for P. gingivalis adherence to streptococci at 5 μM: 5 μM compound; for inhibition of P. gingivalis adherence, dose dependence: tested at final concentrations of 5, 20 or 60 μM, 24 hrs anaerobic incubation; for P. gingivalis adherence to streptococci at 20 μM: 20 μM compound", "procedure": "Compounds 25, 27a, 34, 35 and 42 were tested to determine if they inhibited P. gingivalis adherence to streptococci using a two species biofilm culture model. Compounds of the invention (e.g. compounds of formula I) can also be tested using this method. A mid-exponential phase culture of S. gordonii DL-1 was harvested by centrifugation and the cells were suspended in phosphate buffered saline (PBS) at a density of 10^9 cfu/ml. A 1 ml aliquot was labeled with hexidium iodide (30 μM) for 15 minutes with gentle shaking. After washing three times with PBS, streptococci were suspended in growth medium and 100 μl was added to a 12 well microtiter plate (Grace Bio-Labs) and incubated anaerobically for 24 hrs.\nP. gingivalis cells from an exponential culture were washed with PBS and labeled by reacting with 4 μg/ml carboxyfluorescein-succinyl ester for 30 minutes at 4° C. After washing three times with PBS, the cells were suspended in PBS at a density of 2×10^7 cfu/ml. The test compounds were dissolved in absolute ethanol to a final concentration of 30 mM and each was diluted into 100 μl P. gingivalis to final concentrations of 5, 20 or 60 μM and incubated for 30 minutes. After removal of unbound streptococci from the micotiter plate, P. gingivalis samples were then added to each well and incubated anaerobically for 24 hrs. A control well contained P. gingivalis that was pre-incubated with PBS alone.\nAdherence of P. gingivalis to streptococci was analyzed using confocal laser scanning microscopy on an Olympus FluoView 500 inverted confocal microscope. Image stacks were acquired using Olympus FluoView software and rendered into 3 dimensional projections using Volocity Image Analysis software, where S. gordonii is depicted in red and P. gingivalis is shown in green/yellow. […] Compound 46 reduced P. gingivalis adherence to streptococci by 25% at 25 μM and by approximately 60% at 50 μM."}, "[2]": {"system": "P. gingivalis", "assay": "Modified Baker mouse model of periodontitis (S. gordonii then P. gingivalis infection), alveolar bone loss", "format": "in vivo, Balb/cByJ mice", "conditions": "mice infected with S. gordonii and 10^7 cfu P. gingivalis; peptide added to the inoculum", "excerpt": "FIG. 6. Alveolar bone loss induced in Balb/cByJ mice in the presence and absence of BAR peptide. Sham infected animals were inoculated with CMC slurry without bacteria.\nTo determine how effectively the inhibitors limit or prevent P. gingivalis colonization in vivo, a modified Baker mouse model of periodontitis is used. The model is modified by first infecting with and establishing S. gordonii in the oral cavity of Balb/cByJ mice then subsequently challenging with P. gingivalis. In the presence of S. gordonii, a persistent infection of P. gingivalis (detected by 16S rDNA PCR 47 days post infection) can be established using an inoculum of 10^7 cfu. […] Thus, preventing P. gingivalis colonization of mice reduces alveolar bone loss."}, "[3]": {"system": "P. gingivalis biofilms on streptococci", "assay": "Inhibition/disruption of P. gingivalis biofilms on streptococci by AgI/II-derived peptide", "format": "cell-based", "procedure": "The plate assays above allow a quick examination of the kinetics of Mfa binding and inhibition of bacterial adherence. To determine if the Mfa-catalyzed compounds selected above inhibit the formation of P. gingivalis biofilms, or alternatively are capable of disrupting a pre-existing biofilm, dual species P. gingivalis-S. gordonii biofilms are grown and analyzed as previously described by Daep et al. (Daep, C. A., James, D. M., Lamont, R. J. and Demuth, D. R. 2006. Structural Characterization of Peptide-Mediated Inhibition of P. gingivalis Biofilm Formation. Infect. Immun. 74: 5756-5762; Daep, C. A., Lamont R. J. and Demuth, D. R. 2008. Interaction of P. gingivalis with oral streptococci requires a motif that resembles the eukaryotic nuclear receptor box protein-protein interaction domain. Infect. Immun. 76:3272-3280) using an open flow biofilm culture system. To determine if the inhibitors are capable of disrupting existing P. gingivalis-streptococcal biofilms, pre-formed biofilms are incubated with medium containing the inhibitor and analyzed as above. The inhibitors identified from the assays above are analyzed for in vivo efficacy in preventing P. gingivalis colonization in a mouse model of periodontitis."}},
  "data": [
    {"molecule": "Cc1nc(-c2ccccc2)c(-c2ccccc2)o1", "note": "[Compound 25, 2-Methyl-4,5-diphenyloxazole]", "values": [
      {"measurement": "P. gingivalis adherence to streptococci at 5 μM", "setting": "[1]", "value": "completely inhibited"}
    ]},
    {"molecule": "c1ccc(-c2nc(-c3ccccc3)c(-c3ccccc3)o2)cc1", "note": "[Compound 27a]", "values": [
      {"measurement": "P. gingivalis adherence to streptococci at a concentration of 60", "setting": "[1]; concentration of 60 (unit not given)", "value": "completely blocked adherence"},
      {"measurement": "inhibition of P. gingivalis adherence, dose dependence", "setting": "[1]", "value": "dose dependent inhibition"}
    ]},
    {"molecule": "[N-]=[N+]=Nc1ccc(-c2nc(-c3ccccc3)c(-c3ccccc3)o2)cc1", "note": "[Compound 34, 2-(4-azidophenyl)-4,5-diphenyloxazole]", "values": [
      {"measurement": "P. gingivalis adherence to streptococci at 5 μM", "setting": "[1]", "value": "significantly reduced"},
      {"measurement": "P. gingivalis adherence to streptococci at 20 μM", "setting": "[1]", "value": "completely blocked adherence"}
    ]},
    {"molecule": "[N-]=[N+]=Nc1cccc(-c2nc(-c3ccccc3)c(-c3ccccc3)o2)c1", "note": "[Compound 35, 2-(3-azidophenyl)-4,5-diphenyloxazole]", "values": [
      {"measurement": "P. gingivalis adherence to streptococci at 20 μM", "setting": "[1]", "value": "significantly reduced adherence"},
      {"measurement": "P. gingivalis adherence to streptococci at 60 μM", "setting": "[1]; 60 μM compound", "value": "completely blocked"}
    ]},
    {"molecule": "[N-]=[N+]=NCc1nc(-c2ccccc2)c(-c2ccccc2)o1", "note": "[Compound 42, 2-(Azidomethyl)-4,5-diphenyloxazole]", "values": [
      {"measurement": "P. gingivalis adherence to streptococci at 20 μM", "setting": "[1]", "value": "completely inhibited adherence"},
      {"measurement": "inhibition of P. gingivalis adherence, dose dependence", "setting": "[1]", "value": "dose dependent inhibition"}
    ]},
    {"molecule": "CC(C)CNc1nc(NCC(C)C)nc(-c2ccccc2)n1", "note": "[Compound 46, N^2,N^4-Diisobutyl-6-phenyl-1,3,5-triazine-2,4-diamine]", "values": [
      {"measurement": "reduction of P. gingivalis adherence to streptococci at 25 μM", "setting": "[1]; 25 μM compound", "value": 25, "unit": "%"},
      {"measurement": "reduction of P. gingivalis adherence to streptococci at 50 μM", "setting": "[1]; 50 μM compound", "value": "approximately 60%"}
    ]},
    {"molecule": "LEAAPKKVQDLLKKANITVKGAFQLFS [BAR peptide]", "values": [
      {"measurement": "alveolar bone loss", "setting": "[2]", "value": "reduced to near sham infected levels"},
      {"measurement": "inhibition of P. gingivalis adherence and formation of biofilms on streptococcal substrates", "setting": "[3]", "value": "potently inhibits"},
      {"measurement": "disruption of existing P. gingivalis biofilms", "setting": "[3]; pre-existing biofilms", "value": "capable of disrupting existing P. gingivalis biofilms"},
      {"measurement": "IC50", "setting": "[3]; read-out: I50, inhibition of development of P. gingivalis biofilms on streptococci", "value": 1300, "unit": "nM"}
    ]}
  ]
}
